Consider one compound from US20240391876A1 (priority 2021, published 2024).

The subject of one data set is SARS-COV-2. Kind of data set: Cytopathic effect (CPE) assay against COVID-19 in Vero E6 cells, neutral red uptake. It is filed as cell-based. The conditions noted are these: 2 μg/mL quinacrine, 120 h p.i., at the 30% cytotoxic concentration. Here is the method:
The cytoprotective effect of quinacrine was determined by the cell viability, which is measured by the uptake of neutral red dye at A540.
In this study, the antiviral efficiency of quinacrine was evaluated against COVID-19 in vitro. Antiviral activity was evaluated using a cytopathic effect (CPE) assay, which determines the ability of the compound to prevent viral CPE in African green monkey kidney cells, Vero E6. Four dilutions of the test compound were evaluated, and the effective antiviral concentration was determined by regression analysis. The cytotoxicity of the test compound was determined in parallel by the neutral red cell cytotoxicity assay, a common method used to detect cell viability or drug cytotoxicity. CPE was determined by the uptake of neutral red dye. Quinacrine protects more than 80% of the infected cells from the cytopathic effects caused by COVID-19 at 2 μg/mL concentration (FIG. 8). The tissue distribution of quinacrine was investigated in a previous study by treating mice daily by oral gavage with 30 mg/kg of quinacrine (35% v/v ethanol in distilled water) dissolved in 100 μL total volume for 28 days.
A general note: Cytopathic effects are the visible damage that an infection or toxin causes in cultured cells.

The subject of a further data set is COVID-19 and influenza. Kind of data set: Oral administration of quinacrine for prevention of COVID-19 and influenza (Example 5). The class given is in vivo, human. The conditions noted are these: 300 mg orally twice a day for a month. Here is the method:
The following example describes prevention strategies for COVID-19 and influenza involving an oral administration of Quinacrine.
A person wants to prevent getting sick during the upcoming winter season. Therefore, they schedule an appointment with their primary care physician to discuss their options. At the appointment, the doctor recommends taking a 300 mg pill of quinacrine orally twice a day for the next month.

For data set [1] the following is noted: mice; 30 mg/kg daily oral gavage; after 28 d of treatment; cited from earlier work.
The test system of a further data set is RET G-quadruplex. Kind of data set: Taq DNA polymerase stop assay. It is filed as biochemical. The conditions noted are these: quinacrine 0, 0.5, 1.0 and 2.0 μM. The protocol:
DNA polymerase stop assay was performed at increasing concentrations of each drug. Lanes M represents the di-deoxy sequencing G-reactions with the same template, which serves as the marker to locate the exact stop site. Bands P, S, and F represent the position of the free primer, stop products by G-quadruplex structures, and full-length products, respectively, on the gel.
The G4-stabilizing effect of quinacrine was validated with the RET G4 as a model G4 using a DNA polymerase stop assay and CD spectroscopic studies. In this assay, the ligand mediated stabilization of the G-quadruplex structure arising from the DNA template prevents the progression of the Taq DNA polymerase during primer extension.

The subject of a further data set is RET G4. Description: CD spectroscopy and CD melting curve of RET G4. The class given is binding. The protocol:
In both graphs in FIG. 6, at the 260 wavelength lines in descending order are 20° C., 30° C., 40° C., 50° C., 60° C., 70° C., 80° C., and 90° C.
Quinacrine was further investigated as to whether it stabilizes the RET G4 structure using circular dichroism (CD) spectroscopic analysis. […] Next, the thermal stability of the G-quadruplex structure was examined by monitoring the CD melting curve in the absence and presence of quinacrine (5 equivalent) at increasing temperatures.

The test system of data set [2] is COVID-19 RNA G4s (SG1 and SG2). Description: UV-Vis absorption spectra of quinacrine with RNA G4. It is filed as binding, SARS-COV-2. The conditions noted are these: SG1, SG2 at different concentrations; 10 mM Tris-HCl pH 7.6, 5 mM NaCl, 50 mM KCl. The source says: UV-Vis spectroscopy is the most common and convenient technique to study the interaction between small molecules with nucleic acids, including RNA G4. Molecules containing aromatic chromophore groups interact with RNA G4, and the molecular interaction can be studied based on the changes in the absorption spectra. The hypochromic effect is a spectral property for RNA G4-drug interactions that are closely related to the G4 structure. […] With the addition of G4 RNA, the intensity at both 350 nm and 450 nm bands decreased, inducing the hypochromicity at these wavelengths (FIG. 7). This can be attributed to the decrease in the number of chromophores in solution due to the interaction of quinacrine with RNA G4.

Data set [3] has as its system COVID-19. Kind of data set: Intravenous administration of quinacrine to a COVID-19 patient (Example 2). It is filed as in vivo, human. The protocol: The following example describes treatment strategies for COVID-19 involving an intravenous administration of Quinacrine to a patient.
A person wakes up one morning with a fever of 102.4° F. and a tightness in their chest. They are an essential hospital worker and so believes they may have contracted COVID-19. Therefore, they call their primary care physician to determine their next steps. The primary care physician decides that they should be brought in for testing since they are at a higher risk for complications because the patient has severe asthma. The person gets a nose swab for the test. The doctor mentions that they will call the patient with the results as soon as possible. For now, the person is told to self-isolate and to monitor any changes in symptoms, calling if things get progressively worse. Quickly the person's condition deteriorates, and they begin to experience difficulty breathing and pressure in their chest. The doctor admits them to the ICU of the hospital because they require supplemental oxygen to maintain their oxygen levels. Shortly after being admitted to the ICU, the result of their test comes back positive for COVID-19. The ICU doctor gives the patient an intravenous injection of 200 mg initially every 6 hours for 5 doses, followed by 100 mg 3 times a day for 6 days. Alternatively, 100 mg is administered via IV infusion 3 times a day for 5 to 7 days. […]

Data set [4] deals with COVID-19. Kind of data set: Oral administration of quinacrine to a COVID-19 patient (Example 3). The class given is in vivo, human. The protocol:
The following example describes treatment strategies for COVID-19 involving an oral administration of Quinacrine.
Recently, a COVID-19 test for a person has come back positive. […] After a week at the hospital, the patient's symptoms show no signs of improvement. The doctors at the hospital prescribe to the patient an initial 200 mg dose orally every 6 hours for 5 doses, followed by 100 mg 3 times a day for 6 days. Alternatively, 100 mg is orally administered to the patient after meals 3 times a day for 5 to 7 days. After a week and a half of taking quinacrine daily, the patient's symptoms improve. […] The patient is released from the hospital and is told to stay in self-isolation for another week.

For data set [5], the system named is Influenza A/California/07/2009 (H1N1). Description: Cytopathic effect (CPE) assay against Influenza A (H1N1), neutral red uptake. The class given is cell-based, Influenza A virus. The conditions noted are these: 2 μg/mL quinacrine; three days incubation.

As to `CCN(CC)CCCC(C)Nc1c2ccc(Cl)cc2nc2ccc(OC)cc12` (centres unmarked) [quinacrine], in the data set on SARS-COV-2, the “reduction of CPE due to SARS-COV-2 / protection of infected cells from cytopathic effects” value was “more than 80%”. The side effects result in the data set on COVID-19 and influenza is reported as “No side effects”; in the data set with COVID-19 [3] (intravenous quinacrine, patient), “No side effects”; with COVID-19 [4] (oral quinacrine, patient) it was “No side effects”. In addition, in the data set with COVID-19 and influenza (person), the prevention outcome was “without getting sick”. Also, the “mean concentration in whole blood” value in [1] is 0.47 µg/mL. In [1], the mean lung concentration was 2600 ng/mL. Besides, in the data set with RET G-quadruplex, the “amount of arrested product (stop product by G-quadruplex)” value is reported as “dose-dependent increase”. For the same compound, the “positive CD peak at 262 nm (parallel G-quadruplex structure)” value with RET G4 (in the presence of quinacrine) is recorded as “not affected”. In addition, the “melting temperature (Tm) of the RET G4 structure” value in the data set with RET G4 (quinacrine 5 equivalent, increasing temperatures) is on record as “significantly increased”. Besides, the “absorbance intensity at 350 nm and 450 nm bands on addition of G4 RNA” value in data set [2] is given as “decreased”. Besides, the clinical outcome in the data set with COVID-19 [3] (person, intravenous 200 mg every 6 hours for 5 doses, then 100 mg 3 times a day for 6 days, after a week) is “tests negative for COVID-19”; in the data set on COVID-19 [4] (person, oral 200 mg every 6 hours for 5 doses, then 100 mg 3 times a day for 6 days), “tests negative for COVID-19”. Further, in data set [5], the “protection of infected cells from cytopathic effects caused by Influenza A (H1N1)” value was “more than 80%”.
